{"source": "patent US20230277510A1", "about": "“SIROLIMUS MICROSPHERES AND METHOD OF MAKING SIROLIMUS MICROSPHERES” (M.A. Med Alliance SA, priority 2022, published 2023)", "origin": "cited, not measured here", "data": [{"smiles": "CO[C@H]1C[C@@H]2CC[C@@H](C)[C@@](O)(O2)C(=O)C(=O)N2CCCC[C@H]2C(=O)O[C@H]([C@H](C)C[C@@H]2CC[C@@H](O)[C@H](OC)C2)CC(=O)[C@H](C)/C=C(\\C)[C@@H](O)[C@@H](OC)C(=O)[C@H](C)C[C@H](C)/C=C/C=C/C=C/1C", "note": "[SRL, sirolimus]", "values": [{"measurement": "octanol/water partition coefficient (log P)", "result": 4.3}]}]}
